Laboratory results: PMC7709710 (Investigational new drugs, 2015)

What was measured:
[1] = tested on: Hsp70 protein; assay: Hsp70 protein in PBMCs by Western blot; type: in vivo, human
[2] = Plasma and urine pharmacokinetics in patients; type: in vivo, human
[3] = molecular target: Hsp90; conditions: cited from earlier work
[4] = tested on: advanced solid tumors; assay: Tumor response by RECIST 1.1; type: in vivo, human
[5] = tested on: patients with advanced solid tumors; conditions: human, in vivo, 4 weeks
[6] = tested on: patients; conditions: cited from earlier work
[7] = tested on: human xenograft models; conditions: several human xenograft models; cited from earlier work
[8] = tested on: Hsp27 mRNA; assay: Hsp27 mRNA by RT-PCR in paired tumor biopsies; type: in vivo, human; conditions: one patient, dose level 3 (80 mg/m^2/dose), pre-dose vs day 17 of cycle 1
[9] = tested on: Hsp70 mRNA; assay: Hsp70 mRNA by RT-PCR in paired tumor biopsies; type: in vivo, human; conditions: one patient, dose level 3 (80 mg/m^2/dose), pre-dose vs day 17 of cycle 1
[10] = tested on: Hsp90 client proteins; assay: Reverse phase protein array; type: in vivo, human
[11] = pre- to post-treatment, RP2D, subgroup 1 (patients 21, 22, 31)
[12] = pre- to post-treatment, RP2D, subgroup 2 (patients 28, 24, 30, 27, 29)
[13] = subgroup 1 only (patients 21, 22, 31)

## CC(C)c1cc(C(=O)N2Cc3ccc(CN4CCN(C)CC4)cc3C2)c(O)cc1O [onalespib]
[1]; Patient #1, dose level 1 (20 mg/m^2)
  Hsp70 protein expression in PBMCs at dose level 1: no increase in Hsp70 expression
[1]; patients at dose levels 2 through 5 (RP2D)
  Hsp70 protein expression in PBMC samples: increased Hsp70 protein expression
[2]; 24 h after drug administration
  urinary drug excretion: < 10%
[2]; day 1 vs day 15 of cycle 1
  plasma accumulation of drug with repeated dosing: no significant plasma accumulation
[2]; doses 20–210 mg/m^2
  plasma exposure to drug (AUC) versus dose: proportional to dose
[2]; human, plasma, intravenous
  half-life: ~8 h
[3]
  Kd: 0.71 nM
[4]; 31 patients treated
  tumor responses: No responses were observed
[4]; in vivo
  longest time on study (one patient with hepatocellular carcinoma): 6 cycles
[5]
  recommended phase 2 dose (RP2D): 160 mg/m^2/dose
[6]; 120 mg/m^2/dose twice weekly
  patients with visual disturbances: 10 of 13
[6]; twice weekly dosing, days 1, 4, 8, 11, 15, 18 in 28 day cycles
  maximum-tolerated-dose: 120 mg/m^2/dose
[7]
  tumor growth inhibition, QDx2/week versus other schedules: consistently greater tumor growth inhibition
[8]
  induction of Hsp27 mRNA following treatment: > 2 fold
[9]
  induction of Hsp70 mRNA following treatment: > 1.5 fold
[10]; 9 patients, RP2D, baseline vs cycle 1 day 16 or 17
  within-patient expression changes of 210 client proteins: no proteins with statistically significant changes
[10]; [11]
  CHK2, mean log2-normalized expression change: group 1: 1.0062
  MAP2K2, mean log2-normalized expression change: group 1: −0.2937
  PRAS, mean log2-normalized expression change: group 1: 0.3038
  RAB11A/B, mean log2-normalized expression change: group 1: −0.5853
  Raf-1, mean log2-normalized expression change: group 1: −0.2670
  STAT3, mean log2-normalized expression change: group 1: −0.6103
  STAT5A, mean log2-normalized expression change: group 1: 0.5016
  c-Src, mean log2-normalized expression change: group 1: −0.5997
  eEF-2 kinase, mean log2-normalized expression change: group 1: 0.9679
  serpin E1, mean log2-normalized expression change: group 1: −3.0031
[10]; [12]
  CHK2, mean log2-normalized expression change: group 2: 0.1233
  MAP2K2, mean log2-normalized expression change: group 2: 0.1770
  PRAS, mean log2-normalized expression change: group 2: −0.1004
  RAB11A/B, mean log2-normalized expression change: group 2: 0.0826
  Raf-1, mean log2-normalized expression change: group 2: −0.0855
  STAT3, mean log2-normalized expression change: group 2: 0.0176
  STAT5A, mean log2-normalized expression change: group 2: −0.0725
  c-Src, mean log2-normalized expression change: group 2: −0.0664
  eEF-2 kinase, mean log2-normalized expression change: group 2: −0.0370
  serpin E1, mean log2-normalized expression change: group 2: 0.2094
[10]; [13]
  decrease in CHK1 phosphorylation after treatment: > 2 fold
  decrease in CHK2 phosphorylation after treatment: > 2 fold
